The NIST ThermoML archive (doi:10.1016/j.fluid.2014.09.014)
Numbers after ± are expanded uncertainties.

Assay: refractive index (other wavelength) (dimensionless); xn = mol fraction of the nth substance listed
Settings: 293.15 K, 101 kPa, Liquid, Standard Abbe refractometry

For `CC(C)OC(C)C` [diisopropyl ether] + CO, which refractive index (Wavelength=40.47 nm, x2 = 0) is on record?
Its refractive index is 1.37888 ± 0.00043.

What about the refractive index (Wavelength=40.47 nm, x2 = 0.0423) of the same compound?
The refractive index was 1.37892 ± 0.00043.

And the refractive index (Wavelength=40.47 nm, x2 = 0.0424)?
The refractive index was 1.37884 ± 0.00043.

What about the refractive index (Wavelength=40.47 nm, x2 = 0.082) of the same compound?
The refractive index was 1.37887 ± 0.00042.

What about the refractive index (Wavelength=40.47 nm, x2 = 0.0822) of the same compound?
Its refractive index is 1.37872 ± 0.00042.

And the refractive index (Wavelength=40.47 nm, x2 = 0.1171)?
The refractive index was 1.37858 ± 0.00041.

And the refractive index (Wavelength=40.47 nm, x2 = 0.1271)?
Its refractive index is 1.37862 ± 0.00041.

What about the refractive index (Wavelength=40.47 nm, x2 = 0.1827) of the same compound?
Its refractive index is 1.37814 ± 0.0004.

What about the refractive index (Wavelength=40.47 nm, x2 = 0.2162) of the same compound?
The refractive index was 1.37791 ± 0.0004.

What about the refractive index (Wavelength=40.47 nm, x2 = 0.251) of the same compound?
The refractive index was 1.37812 ± 0.0004.

And the refractive index (Wavelength=40.47 nm, x2 = 0.3298)?
Its refractive index is 1.37709 ± 0.00038.

What about the refractive index (Wavelength=40.47 nm, x2 = 0.3577) of the same compound?
The refractive index was 1.37556 ± 0.00038.

And the refractive index (Wavelength=40.47 nm, x2 = 0.4497)?
Its refractive index is 1.37463 ± 0.00037.

And the refractive index (Wavelength=40.47 nm, x2 = 0.4525)?
Its refractive index is 1.37517 ± 0.00037.

And the refractive index (Wavelength=40.47 nm, x2 = 0.522)?
The refractive index was 1.37278 ± 0.00036.

And the refractive index (Wavelength=40.47 nm, x2 = 0.5543)?
Its refractive index is 1.37252 ± 0.00035.

And the refractive index (Wavelength=40.47 nm, x2 = 0.609)?
Its refractive index is 1.36927 ± 0.00035.

What about the refractive index (Wavelength=40.47 nm, x2 = 0.6529) of the same compound?
The refractive index was 1.36767 ± 0.00034.

What about the refractive index (Wavelength=40.47 nm, x2 = 0.7504) of the same compound?
The refractive index was 1.36362 ± 0.00033.

What about the refractive index (Wavelength=40.47 nm, x2 = 0.804) of the same compound?
Its refractive index is 1.35916 ± 0.00033.

What about the refractive index (Wavelength=40.47 nm, x2 = 0.807) of the same compound?
The refractive index was 1.35902 ± 0.00033.

And the refractive index (Wavelength=40.47 nm, x2 = 0.8727)?
The refractive index was 1.35351 ± 0.00032.

What about the refractive index (Wavelength=40.47 nm, x2 = 0.9233) of the same compound?
Its refractive index is 1.34636 ± 0.00033.

And the refractive index (Wavelength=40.47 nm, x2 = 0.9253)?
The refractive index was 1.34824 ± 0.00033.

What about the refractive index (Wavelength=40.47 nm, x2 = 0.9527) of the same compound?
Its refractive index is 1.34496 ± 0.00032.

And the refractive index (Wavelength=40.47 nm, x2 = 0.9773)?
Its refractive index is 1.34138 ± 0.00032.

And the refractive index (Wavelength=40.47 nm, x2 = 0.989)?
The refractive index was 1.34018 ± 0.00032.

And the refractive index (Wavelength=40.47 nm, x2 = 0.9964)?
The refractive index was 1.33872 ± 0.00032.

And the refractive index (Wavelength=435.8 nm, x2 = 0)?
The refractive index was 1.37585 ± 0.00043.

What about the refractive index (Wavelength=435.8 nm, x2 = 0.0423) of the same compound?
Its refractive index is 1.37589 ± 0.00043.

What about the refractive index (Wavelength=435.8 nm, x2 = 0.0424) of the same compound?
The refractive index was 1.37583 ± 0.00043.

What about the refractive index (Wavelength=435.8 nm, x2 = 0.082) of the same compound?
Its refractive index is 1.37585 ± 0.00042.

And the refractive index (Wavelength=435.8 nm, x2 = 0.0822)?
Its refractive index is 1.37569 ± 0.00042.

What about the refractive index (Wavelength=435.8 nm, x2 = 0.1171) of the same compound?
Its refractive index is 1.37556 ± 0.00041.

What about the refractive index (Wavelength=435.8 nm, x2 = 0.1271) of the same compound?
The refractive index was 1.3756 ± 0.00041.

What about the refractive index (Wavelength=435.8 nm, x2 = 0.1827) of the same compound?
The refractive index was 1.37514 ± 0.0004.

What about the refractive index (Wavelength=435.8 nm, x2 = 0.2162) of the same compound?
The refractive index was 1.37492 ± 0.0004.

What about the refractive index (Wavelength=435.8 nm, x2 = 0.251) of the same compound?
Its refractive index is 1.37513 ± 0.00039.

And the refractive index (Wavelength=435.8 nm, x2 = 0.3298)?
The refractive index was 1.37411 ± 0.00038.

And the refractive index (Wavelength=435.8 nm, x2 = 0.3577)?
Its refractive index is 1.37264 ± 0.00038.

And the refractive index (Wavelength=435.8 nm, x2 = 0.4497)?
Its refractive index is 1.3717 ± 0.00037.

And the refractive index (Wavelength=435.8 nm, x2 = 0.4525)?
Its refractive index is 1.37223 ± 0.00037.

And the refractive index (Wavelength=435.8 nm, x2 = 0.522)?
Its refractive index is 1.36987 ± 0.00036.

And the refractive index (Wavelength=435.8 nm, x2 = 0.5543)?
The refractive index was 1.36963 ± 0.00035.

What about the refractive index (Wavelength=435.8 nm, x2 = 0.609) of the same compound?
Its refractive index is 1.3664 ± 0.00035.

And the refractive index (Wavelength=435.8 nm, x2 = 0.6529)?
The refractive index was 1.36484 ± 0.00034.

And the refractive index (Wavelength=435.8 nm, x2 = 0.7504)?
The refractive index was 1.36086 ± 0.00033.

What about the refractive index (Wavelength=435.8 nm, x2 = 0.804) of the same compound?
The refractive index was 1.35647 ± 0.00033.

And the refractive index (Wavelength=435.8 nm, x2 = 0.807)?
The refractive index was 1.35632 ± 0.00033.

And the refractive index (Wavelength=435.8 nm, x2 = 0.8727)?
The refractive index was 1.35088 ± 0.00032.

What about the refractive index (Wavelength=435.8 nm, x2 = 0.9233) of the same compound?
Its refractive index is 1.34384 ± 0.00033.

And the refractive index (Wavelength=435.8 nm, x2 = 0.9253)?
The refractive index was 1.34571 ± 0.00033.

And the refractive index (Wavelength=435.8 nm, x2 = 0.9527)?
Its refractive index is 1.34296 ± 0.00032.

What about the refractive index (Wavelength=435.8 nm, x2 = 0.9773) of the same compound?
The refractive index was 1.33894 ± 0.00032.

What about the refractive index (Wavelength=435.8 nm, x2 = 0.989) of the same compound?
Its refractive index is 1.33775 ± 0.00032.

And the refractive index (Wavelength=435.8 nm, x2 = 0.9964)?
The refractive index was 1.33631 ± 0.00032.

What about the refractive index (Wavelength=486.1 nm, x2 = 0) of the same compound?
The refractive index was 1.37241 ± 0.00043.

And the refractive index (Wavelength=486.1 nm, x2 = 0.0423)?
Its refractive index is 1.37246 ± 0.00043.

What about the refractive index (Wavelength=486.1 nm, x2 = 0.0424) of the same compound?
Its refractive index is 1.37238 ± 0.00043.

And the refractive index (Wavelength=486.1 nm, x2 = 0.082)?
Its refractive index is 1.37242 ± 0.00042.

What about the refractive index (Wavelength=486.1 nm, x2 = 0.0822) of the same compound?
Its refractive index is 1.37228 ± 0.00042.

What about the refractive index (Wavelength=486.1 nm, x2 = 0.1171) of the same compound?
The refractive index was 1.37214 ± 0.00041.

And the refractive index (Wavelength=486.1 nm, x2 = 0.1271)?
Its refractive index is 1.37217 ± 0.00041.

And the refractive index (Wavelength=486.1 nm, x2 = 0.1827)?
The refractive index was 1.37173 ± 0.0004.

And the refractive index (Wavelength=486.1 nm, x2 = 0.2162)?
The refractive index was 1.37149 ± 0.0004.

And the refractive index (Wavelength=486.1 nm, x2 = 0.251)?
Its refractive index is 1.37172 ± 0.00039.

What about the refractive index (Wavelength=486.1 nm, x2 = 0.3298) of the same compound?
Its refractive index is 1.37071 ± 0.00038.

And the refractive index (Wavelength=486.1 nm, x2 = 0.3577)?
The refractive index was 1.36925 ± 0.00038.

And the refractive index (Wavelength=486.1 nm, x2 = 0.4497)?
Its refractive index is 1.36834 ± 0.00037.

What about the refractive index (Wavelength=486.1 nm, x2 = 0.4525) of the same compound?
Its refractive index is 1.36886 ± 0.00037.

And the refractive index (Wavelength=486.1 nm, x2 = 0.522)?
The refractive index was 1.36658 ± 0.00036.

What about the refractive index (Wavelength=486.1 nm, x2 = 0.5543) of the same compound?
The refractive index was 1.36633 ± 0.00035.

And the refractive index (Wavelength=486.1 nm, x2 = 0.609)?
Its refractive index is 1.36316 ± 0.00035.

What about the refractive index (Wavelength=486.1 nm, x2 = 0.6529) of the same compound?
Its refractive index is 1.36161 ± 0.00034.

What about the refractive index (Wavelength=486.1 nm, x2 = 0.7504) of the same compound?
The refractive index was 1.35769 ± 0.00033.

What about the refractive index (Wavelength=486.1 nm, x2 = 0.804) of the same compound?
Its refractive index is 1.35338 ± 0.00033.

And the refractive index (Wavelength=486.1 nm, x2 = 0.807)?
Its refractive index is 1.35323 ± 0.00033.

What about the refractive index (Wavelength=486.1 nm, x2 = 0.8727) of the same compound?
Its refractive index is 1.34784 ± 0.00032.

What about the refractive index (Wavelength=486.1 nm, x2 = 0.9233) of the same compound?
The refractive index was 1.34087 ± 0.00033.

What about the refractive index (Wavelength=486.1 nm, x2 = 0.9253) of the same compound?
The refractive index was 1.34275 ± 0.00033.

What about the refractive index (Wavelength=486.1 nm, x2 = 0.9527) of the same compound?
Its refractive index is 1.33953 ± 0.00032.

And the refractive index (Wavelength=486.1 nm, x2 = 0.9773)?
The refractive index was 1.33601 ± 0.00032.

And the refractive index (Wavelength=486.1 nm, x2 = 0.989)?
Its refractive index is 1.33487 ± 0.00032.

What about the refractive index (Wavelength=486.1 nm, x2 = 0.9964) of the same compound?
The refractive index was 1.33342 ± 0.00032.

And the refractive index (Wavelength=546.1 nm, x2 = 0)?
Its refractive index is 1.36955 ± 0.00043.

What about the refractive index (Wavelength=546.1 nm, x2 = 0.0423) of the same compound?
The refractive index was 1.3696 ± 0.00043.

And the refractive index (Wavelength=546.1 nm, x2 = 0.0424)?
Its refractive index is 1.36953 ± 0.00043.

What about the refractive index (Wavelength=546.1 nm, x2 = 0.082) of the same compound?
The refractive index was 1.36956 ± 0.00042.

What about the refractive index (Wavelength=546.1 nm, x2 = 0.0822) of the same compound?
The refractive index was 1.36942 ± 0.00042.

What about the refractive index (Wavelength=546.1 nm, x2 = 0.1171) of the same compound?
Its refractive index is 1.3693 ± 0.00041.

And the refractive index (Wavelength=546.1 nm, x2 = 0.1271)?
Its refractive index is 1.36933 ± 0.00041.

What about the refractive index (Wavelength=546.1 nm, x2 = 0.1827) of the same compound?
Its refractive index is 1.36889 ± 0.0004.

And the refractive index (Wavelength=546.1 nm, x2 = 0.2162)?
The refractive index was 1.36867 ± 0.0004.
